In ChEMBL document CHEMBL1201862, “PubChem BioAssay data set” (2004):
Activity calls are given as the source filed them.

Tests used:
Cytochrome P450 2C19 = Cytochrome P450 2C19 (Homo sapiens, UniProt P33261); experiment: Cytochrome panel assay with activity outcomes. Panel member name: p450-cyp2c19 Compounds with AC50 equal or less than 10 uM are considered active; assay type: functional; settings: read-out: AC50
Cytochrome P450 3A4 = Cytochrome P450 3A4 (Homo sapiens, UniProt P08684);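 also: CYP3A4 tested as one member of a cytochrome P450 panel screen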
Cytochrome P450 3A4, sequence (P08684 whole entry): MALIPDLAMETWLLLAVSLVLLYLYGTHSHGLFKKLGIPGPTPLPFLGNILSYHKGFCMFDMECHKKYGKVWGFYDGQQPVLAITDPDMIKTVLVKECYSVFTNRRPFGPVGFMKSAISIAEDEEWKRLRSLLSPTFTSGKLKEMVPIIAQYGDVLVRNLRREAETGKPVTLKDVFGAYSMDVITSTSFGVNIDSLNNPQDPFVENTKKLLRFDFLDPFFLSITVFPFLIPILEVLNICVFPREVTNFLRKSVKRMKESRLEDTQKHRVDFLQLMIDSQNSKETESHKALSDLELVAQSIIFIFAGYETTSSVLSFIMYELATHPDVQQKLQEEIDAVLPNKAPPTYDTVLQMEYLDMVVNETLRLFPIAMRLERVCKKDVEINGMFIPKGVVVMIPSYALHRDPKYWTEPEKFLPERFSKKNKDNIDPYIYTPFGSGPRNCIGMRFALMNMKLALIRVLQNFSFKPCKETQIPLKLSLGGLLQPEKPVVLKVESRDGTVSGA

Cytochrome P450 2C9 = Cytochrome P450 2C9 (Homo sapiens, UniProt P11712)
Cytochrome P450 2C9, sequence (P11712 whole entry): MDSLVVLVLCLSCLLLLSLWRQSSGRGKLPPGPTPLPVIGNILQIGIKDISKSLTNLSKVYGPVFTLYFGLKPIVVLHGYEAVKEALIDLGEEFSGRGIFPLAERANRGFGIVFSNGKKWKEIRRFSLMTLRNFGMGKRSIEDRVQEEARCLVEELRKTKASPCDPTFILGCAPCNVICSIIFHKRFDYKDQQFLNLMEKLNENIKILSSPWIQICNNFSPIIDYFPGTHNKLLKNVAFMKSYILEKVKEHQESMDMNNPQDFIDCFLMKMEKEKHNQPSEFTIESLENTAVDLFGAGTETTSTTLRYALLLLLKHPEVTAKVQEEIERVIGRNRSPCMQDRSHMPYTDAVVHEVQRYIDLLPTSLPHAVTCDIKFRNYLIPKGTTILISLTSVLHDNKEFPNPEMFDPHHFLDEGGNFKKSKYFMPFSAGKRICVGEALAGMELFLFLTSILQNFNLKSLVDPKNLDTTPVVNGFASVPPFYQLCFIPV

[1] = THP-1 cell cytotoxicity, dose response, cytotoxicity control for Vif-APOBEC3G degradation inhibitor project, THP-1 cells (AID 1117359); assay type: functional; settings: Human immunodeficiency virus 1, THP-1
[2] = Luminescence Cell-Based Dose Confirmation HTS to Identify Activators of 5'UTR Stem-Loop Driven Alpha-Synuclein mRNA Translation in H4 Neuroglioblastoma Cells. [Related pubchem assays: 1829 (Project Summary), 1814 (Primary HTS)]; assay type: functional
[3] = Luminescence Cell-Based Dose Response HTS to Identify Activators of Luciferase Translation or Activity in H4 […] Cells. [Related pubchem assays: 1829 (Project Summary), 1814 (Primary HTS)]; assay type: functional
H4 = experiment: Luminescence Cell-Based Dose Response HTS to Identify Activators of 5'UTR Stem-Loop Driven Prion Protein mRNA Translation in H4 Neuroglioblastoma Cells. [Related pubchem assays: 1829 (Project Summary), 1814 (Primary HTS)]; assay type: functional; settings: Homo sapiens
[4] = microbe, parasite or virus in culture; assay type: functional; settings: Mycobacterium tuberculosis
Cytochrome P450 2D6 = Cytochrome P450 2D6 (Homo sapiens, UniProt P10635);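 also: CYP2D6 member of a cytochrome P450 panel assay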
Cytochrome P450 2D6, sequence (P10635 whole entry): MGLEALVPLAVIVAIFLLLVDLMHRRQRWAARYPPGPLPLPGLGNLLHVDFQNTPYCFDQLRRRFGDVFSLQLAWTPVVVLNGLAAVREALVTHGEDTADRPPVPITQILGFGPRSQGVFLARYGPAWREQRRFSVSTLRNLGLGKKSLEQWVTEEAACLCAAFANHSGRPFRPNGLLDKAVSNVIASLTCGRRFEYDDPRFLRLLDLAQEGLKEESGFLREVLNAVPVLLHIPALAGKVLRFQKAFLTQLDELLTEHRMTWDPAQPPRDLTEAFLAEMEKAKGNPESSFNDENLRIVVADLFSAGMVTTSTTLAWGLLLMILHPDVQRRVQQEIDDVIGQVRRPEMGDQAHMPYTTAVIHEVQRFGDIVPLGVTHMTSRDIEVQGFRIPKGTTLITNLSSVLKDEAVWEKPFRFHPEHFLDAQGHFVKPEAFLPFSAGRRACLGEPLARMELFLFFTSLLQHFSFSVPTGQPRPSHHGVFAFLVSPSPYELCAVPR

Nonstructural protein 1 = Nonstructural protein 1 (Influenza A virus, UniProt Q194T2); assay type: functional, Influenza A virus (A/California/07/2009(H1N1))
Nonstructural protein 1, sequence (Q194T2 whole entry): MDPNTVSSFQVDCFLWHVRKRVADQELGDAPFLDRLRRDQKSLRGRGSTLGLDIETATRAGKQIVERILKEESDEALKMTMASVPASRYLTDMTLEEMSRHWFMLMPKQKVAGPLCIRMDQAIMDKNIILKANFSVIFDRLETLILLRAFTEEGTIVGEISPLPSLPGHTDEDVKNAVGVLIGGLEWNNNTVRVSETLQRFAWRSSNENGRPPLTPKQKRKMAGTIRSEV

Cytochrome P450 1A2 = target: T1, Cytochrome P450 1A2 (Homo sapiens, UniProt P05177);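 also: PubChem cytochrome P450 panel assay, CYP1A2 panel member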
T1 sequence (P05177 whole entry): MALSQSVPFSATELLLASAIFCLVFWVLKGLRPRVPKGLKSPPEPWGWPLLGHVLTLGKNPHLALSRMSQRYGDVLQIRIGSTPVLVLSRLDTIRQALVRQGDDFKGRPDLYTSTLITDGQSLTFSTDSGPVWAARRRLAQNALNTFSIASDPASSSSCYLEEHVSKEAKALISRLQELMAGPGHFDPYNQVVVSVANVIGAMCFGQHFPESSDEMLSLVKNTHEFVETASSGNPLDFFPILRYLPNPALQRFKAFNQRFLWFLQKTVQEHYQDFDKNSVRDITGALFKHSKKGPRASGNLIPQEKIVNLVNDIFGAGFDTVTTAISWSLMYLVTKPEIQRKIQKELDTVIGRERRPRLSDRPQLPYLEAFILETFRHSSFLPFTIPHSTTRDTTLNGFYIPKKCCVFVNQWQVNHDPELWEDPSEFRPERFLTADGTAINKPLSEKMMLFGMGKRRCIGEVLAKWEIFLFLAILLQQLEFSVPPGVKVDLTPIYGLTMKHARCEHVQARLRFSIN

[5] = HEp-2 cell cytotoxicity, dose response, cytotoxicity control for RSV inhibitor project, HTS (AID 2410); assay type: functional; settings: human respiratory syncytial virus
[6] = target: T2, Heat shock factor protein 1 (Mus musculus, UniProt P38532); experiment: HSF1 potentiators in luciferase reporter cells, confirmation, cell-based, NIH3T3, luminescence, dose retest (AID 435004); assay type: functional;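 also: stress induced by proteasome inhibitor MG132 added 30 min after compound; luciferase reporter driven by HSF1 response element in NIH3T3 cells; actives raise luminescence as potentiators of the MG132 stress response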
T2 sequence (P38532 whole entry): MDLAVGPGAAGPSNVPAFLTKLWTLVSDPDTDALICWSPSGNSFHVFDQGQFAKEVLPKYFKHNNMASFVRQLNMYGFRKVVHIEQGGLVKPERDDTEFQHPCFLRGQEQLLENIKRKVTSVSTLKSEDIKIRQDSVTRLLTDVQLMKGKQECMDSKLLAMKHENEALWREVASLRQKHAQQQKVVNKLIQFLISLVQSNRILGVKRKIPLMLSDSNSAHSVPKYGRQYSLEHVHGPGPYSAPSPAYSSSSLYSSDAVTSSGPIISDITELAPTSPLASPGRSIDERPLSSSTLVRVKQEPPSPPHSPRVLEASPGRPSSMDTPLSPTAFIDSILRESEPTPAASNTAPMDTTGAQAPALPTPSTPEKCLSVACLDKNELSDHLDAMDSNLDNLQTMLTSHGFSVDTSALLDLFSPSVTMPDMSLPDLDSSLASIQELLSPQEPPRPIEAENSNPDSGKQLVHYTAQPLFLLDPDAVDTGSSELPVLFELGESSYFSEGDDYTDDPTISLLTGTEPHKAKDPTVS

[7] = inhibitors of HIV Env-driven cell fusion, dose response, cherry-pick (AID 652057); assay type: functional, cell-based
[8] = ZM109 Env clade C HIV-1 fusion inhibitors, dose response, HeLa effector, CEM target cells, luciferase, cherry-pick (AID 652058); assay type: functional, cell-based
[9] = off-target signal loss in HeLa-CEM21 co-culture – HeLa F-luc CTL cells, cherry-picked, counter-screen for HIV-1 Env fusion inhibitor project, dose response (AID 652040); assay type: functional, cell-based;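 also: potency for signal decrease marking cytotoxic or nonspecific inhibition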
[10] = target: T3, Polyadenylate-binding protein 1 (Homo sapiens, UniProt P11940); experiment: PABP1 MLLE–PAM2 interaction inhibitors, dose response, miRNA deadenylation inhibitor project, biochemical, fluorescence polarization, Cy5-PAM2 peptide, secondary (AID 602260); assay type: functional; settings: read-out: IC50_Mean
T3 sequence (P11940 whole entry): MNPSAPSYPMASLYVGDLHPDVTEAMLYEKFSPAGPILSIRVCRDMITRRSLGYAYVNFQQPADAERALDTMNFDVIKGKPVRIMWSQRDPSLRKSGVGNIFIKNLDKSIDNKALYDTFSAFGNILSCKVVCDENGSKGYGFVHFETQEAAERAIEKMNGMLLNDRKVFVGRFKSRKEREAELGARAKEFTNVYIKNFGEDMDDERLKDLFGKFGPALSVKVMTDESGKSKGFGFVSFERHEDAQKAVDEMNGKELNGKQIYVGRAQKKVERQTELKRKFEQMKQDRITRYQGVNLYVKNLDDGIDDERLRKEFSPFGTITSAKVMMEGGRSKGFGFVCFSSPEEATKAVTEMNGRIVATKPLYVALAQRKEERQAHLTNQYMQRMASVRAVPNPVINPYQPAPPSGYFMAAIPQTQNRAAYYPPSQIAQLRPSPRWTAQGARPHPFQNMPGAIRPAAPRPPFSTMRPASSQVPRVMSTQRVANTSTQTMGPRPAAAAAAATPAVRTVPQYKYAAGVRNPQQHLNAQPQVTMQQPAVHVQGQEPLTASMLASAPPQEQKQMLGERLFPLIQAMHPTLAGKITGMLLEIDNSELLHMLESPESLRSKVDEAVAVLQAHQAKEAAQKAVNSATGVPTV

[11] = target: T3, Polyadenylate-binding protein 1; experiment: PABP1 MLLE–PAM2 binding inhibitor potency, dose response, biochemical, fluorescence polarization, FITC-PAM2 peptide (AID 602259); assay type: functional; settings: read-out: IC50_Mean
[12] = inhibitors of clade B AD8 Env fusion, dose response, cell-based, cherry-pick (AID 652062); assay type: functional;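 also: luciferase signal from cell-cell fusion driven by HIV-1 clade B AD8 Env; potency is for inhibitors of fusion seen as a drop in luminescence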
[13] = HeLa cell cytotoxicity, dose response, cytotoxicity control for MgcRacGAP inhibitor project (AID 624300); assay type: functional
[14] = target: T4, Rac GTPase-activating protein 1 (Homo sapiens, UniProt Q9H0H5); experiment: MgcRacGAP GTPase-activating activity inhibitors, confirmation, biochemical, ADP Hunter fluorescence, primary and confirmatory (AID 624330); assay type: functional
T4 sequence (Q9H0H5 whole entry): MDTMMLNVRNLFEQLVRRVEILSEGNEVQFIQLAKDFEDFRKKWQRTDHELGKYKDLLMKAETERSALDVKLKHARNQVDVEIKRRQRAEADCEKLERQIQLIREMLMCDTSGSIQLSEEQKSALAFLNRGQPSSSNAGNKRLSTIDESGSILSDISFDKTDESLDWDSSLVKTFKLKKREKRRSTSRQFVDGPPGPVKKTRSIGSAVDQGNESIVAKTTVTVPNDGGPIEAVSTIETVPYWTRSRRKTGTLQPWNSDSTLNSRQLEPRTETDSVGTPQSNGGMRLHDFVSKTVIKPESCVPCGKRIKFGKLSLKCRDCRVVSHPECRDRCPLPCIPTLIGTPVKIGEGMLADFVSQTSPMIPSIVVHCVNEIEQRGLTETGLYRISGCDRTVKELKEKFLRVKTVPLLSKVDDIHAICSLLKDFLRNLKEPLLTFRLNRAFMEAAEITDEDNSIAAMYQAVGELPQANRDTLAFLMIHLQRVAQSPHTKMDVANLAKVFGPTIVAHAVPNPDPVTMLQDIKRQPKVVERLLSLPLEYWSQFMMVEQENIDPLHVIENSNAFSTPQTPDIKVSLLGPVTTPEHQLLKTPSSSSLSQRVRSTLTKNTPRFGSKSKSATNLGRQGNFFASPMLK

[15] = test system: Streptococcus sp. 'group A'; experiment: growth inhibition of control SK(-) GAS strain, dose response, counter-screen for streptokinase expression inhibitor project, luminescence, kanamycin, BacTiterGlo, confirmation (AID 1900); assay type: functional, organism-based
Streptococcus = experiment: Group A Streptococcus viability loss, dose response, counter-screen for streptokinase expression inhibitor project, luminescence, BacTiterGlo (AID 1915); assay type: functional, organism-based;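 also: potency for reduction of bacterial viability or growth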
[16] = target: Luciferin 4-monooxygenase (Photinus pyralis, UniProt P08659); experiment: firefly luciferase enzyme inhibitors, dose response, biochemical, luminescence (AID 1891)
Luciferin 4-monooxygenase, sequence (P08659 whole entry): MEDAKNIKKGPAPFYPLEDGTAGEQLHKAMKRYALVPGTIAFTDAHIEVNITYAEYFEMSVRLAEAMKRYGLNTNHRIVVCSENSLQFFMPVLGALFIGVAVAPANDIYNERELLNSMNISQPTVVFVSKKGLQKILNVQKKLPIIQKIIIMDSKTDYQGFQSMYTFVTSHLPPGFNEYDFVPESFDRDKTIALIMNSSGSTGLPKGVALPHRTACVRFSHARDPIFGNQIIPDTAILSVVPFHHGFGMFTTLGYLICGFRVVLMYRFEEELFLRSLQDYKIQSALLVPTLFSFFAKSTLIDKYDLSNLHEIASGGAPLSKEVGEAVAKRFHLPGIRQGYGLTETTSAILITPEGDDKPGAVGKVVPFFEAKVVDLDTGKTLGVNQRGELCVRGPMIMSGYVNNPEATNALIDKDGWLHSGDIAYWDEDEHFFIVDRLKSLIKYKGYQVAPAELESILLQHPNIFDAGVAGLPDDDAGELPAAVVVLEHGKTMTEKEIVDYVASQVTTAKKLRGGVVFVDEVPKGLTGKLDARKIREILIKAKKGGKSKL

[17] = Luminescence Cell-Based Dose Confirmation HTS to Identify Inhibitors of Platelet Dense Granule Release. [Related pubchem assays: 1663 (Primary HTS), 1678 (Summary of Project)]; assay type: functional

Cytochrome P450 2C19, sequence (P33261 whole entry): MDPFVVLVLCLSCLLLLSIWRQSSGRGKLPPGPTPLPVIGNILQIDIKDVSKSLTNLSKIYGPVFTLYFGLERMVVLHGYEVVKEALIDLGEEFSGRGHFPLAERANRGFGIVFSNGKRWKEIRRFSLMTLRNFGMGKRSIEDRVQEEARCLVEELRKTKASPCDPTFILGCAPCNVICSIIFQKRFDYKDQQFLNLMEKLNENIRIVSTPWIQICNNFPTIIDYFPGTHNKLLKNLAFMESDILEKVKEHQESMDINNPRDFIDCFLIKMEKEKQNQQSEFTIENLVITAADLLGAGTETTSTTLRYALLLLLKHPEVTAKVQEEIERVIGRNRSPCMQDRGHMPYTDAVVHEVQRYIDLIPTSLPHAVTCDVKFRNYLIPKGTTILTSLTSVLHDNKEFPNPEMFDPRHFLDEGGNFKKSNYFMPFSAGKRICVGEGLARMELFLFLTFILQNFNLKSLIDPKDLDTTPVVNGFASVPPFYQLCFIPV

O=C(Nc1nc[nH]n1)c1ccc([N+](=O)[O-])cc1[N+](=O)[O-]
AC50 (Cytochrome P450 2C19): 39.8 µM (inconclusive) | AC50 (Cytochrome P450 3A4): 14.1 µM (inconclusive) | AC50 (Cytochrome P450 2C9): inconclusive

CCOC(=O)c1c(C)c(/C=N/Nc2ccccc2)n(C)c1C
CC50 [1]: > 40 µM (active)

COc1cccc(-c2nc3n(n2)C(c2ccc4c(c2)OCO4)C(C(N)=O)=C(C)N3)c1 (stereo unspecified)
EC50 [2]: 12.4 µM (active) | EC50 [3]: 31.6 µM (active) | EC50 (H4): > 120 µM (not active)

Cc1cc(O)c2c(c1)C(=O)c1cc(O)cc(O)c1C2=O [EMODIN]
CC50 [4]: 20.1 µM (active)

O=C(CCCN1CC=C(n2c(=O)[nH]c3ccccc32)CC1)c1ccc(F)cc1 [DROPERIDOL]
AC50 (Cytochrome P450 2C9): inconclusive

COc1ccc(-c2cc(=Nc3ccccc3)c3cc(C)ccc3o2)cc1.[O-][Cl+3]([O-])([O-])O
EC50 [2]: 12.7 µM (active) | EC50 [3]: 10.3 µM (active) | EC50 (H4): 9.82 µM (active)

C/C(CC(=O)NCCCN1CCOCC1)=N\NC(=O)COc1ccc(Cl)cc1
AC50 (Cytochrome P450 2C19): 10 µM (inconclusive) | AC50 (Cytochrome P450 2D6): 14.1 µM (inconclusive) | AC50 (Cytochrome P450 2C9): inconclusive

Cc1ccc(S(=O)(=O)N(C)c2ccccc2C(=O)N2CCCC2)cc1
CC50 [1]: > 40 µM (active)

CCCCC(=O)NN/C=C1\C(=O)NC(=O)N(Cc2ccco2)C1=O
IC50 (Nonstructural protein 1): 13.7 µM (active)

COc1ccc(Cl)cc1NC(=O)C12CCC(C)(C(=O)O1)C2(C)C (stereo unspecified)
AC50 (Cytochrome P450 1A2): 28.2 µM (inconclusive) | AC50 (Cytochrome P450 2C9): inconclusive

CCCn1c(C2CCCN2c2nc(-c3cccc(Br)c3)cs2)nc2ccccc21 (stereo unspecified)
CC50 [5]: 20.9 µM (active) | EC50 [2]: 5.7 µM (active) | EC50 [3]: 32.7 µM (active) | EC50 (H4): > 120 µM (not active)

CCC(=O)N1N=C(c2ccc(NS(C)(=O)=O)cc2)CC1c1ccc(C)cc1 (stereo unspecified)
CC50 [1]: > 40 µM (active)

COc1ccc(CNc2ncncc2-c2cccnc2)c(OC)c1
AC50 (Cytochrome P450 2C9): inconclusive

O=C(CCCn1c(=S)[nH]c2ccc(Br)cc2c1=O)NCC1CCCO1 (stereo unspecified)
EC50 [6]: > 260 µM (inactive) | AC50 (Cytochrome P450 3A4): 35.5 µM (inconclusive) | AC50 (Cytochrome P450 2C9): inconclusive

O=C1c2cccnc2C(Nc2ccc(S(=O)(=O)N3CCCCCC3)cc2)N1Cc1ccccc1 (stereo unspecified)
AC50 [7]: 27.2 µM (active) | AC50 [8]: 30.5 µM (active) | AC50 [9]: 32.2 µM (active)

O=C(C1CC1)N1CCCC(c2ccc(Cl)cc2)=N1
CC50 [4]: > 40 µM (active)

NC(=O)NC(=O)CC1SC(NN=C2CSC(=O)N2)=NC1=O (stereo unspecified)
IC50 (Nonstructural protein 1): 7.54 µM (active) | IC50 [10]: > 66 µM (inactive) | IC50 [11]: > 66 µM (inactive)

O=C(N/N=C/c1ccccc1O)C1SCCCS1
IC50 (Nonstructural protein 1): 35.6 µM (active)

CCS(=O)(=O)N1Cc2ccccc2CC1C(=O)NC(C)C12CC3CC(CC(C3)C1)C2 (stereo unspecified)
AC50 [7]: 3.24 µM (active) | AC50 [8]: 3.91 µM (active) | AC50 [9]: 4.99 µM (active) | AC50 [12]: 3.56 µM (active)

C[C@H]1Cn2cnc(C(=O)N3CCN(c4ccccc4)CC3)c2C(=O)N1
AC50 [7]: 3.57 µM (active) | AC50 [8]: 6.04 µM (active) | AC50 [9]: 7.64 µM (active) | AC50 [12]: 13.4 µM (active)

COc1ccccc1OCC(=O)N/N=C1/SCC(=O)N1Cc1ccccc1
AC50 (Cytochrome P450 2D6): 22.4 µM (inconclusive) | AC50 (Cytochrome P450 3A4): 0.891 µM (inconclusive) | AC50 (Cytochrome P450 2C9): inconclusive

Cc1ccc(C(=N)NOC(=O)N2c3ccccc3Sc3ccccc32)cc1
CC50 [4]: > 40 µM (active) | CC50 [13]: 96.4 µM (active) | IC50 [14]: 134 µM (active)

O=C(NC(=S)NNC(=O)c1ccccc1O)c1ccccc1
EC50 [15]: 2.04 µM (active) | EC50 (Streptococcus): 8.1 µM (active) | IC50 (Nonstructural protein 1): 14.2 µM (active)

CC(=O)c1c(C)[n+]([O-])c2cc(F)c(F)cc2[n+]1[O-]
CC50 [4]: 35.4 µM (active)

C(=C\n1nnc2ccccc21)/c1ccc[nH]1
EC50 [2]: 28.4 µM (active) | EC50 [3]: 9.95 µM (active) | EC50 (H4): 32 µM (active)

COc1ccccc1C(=O)NN1C(=O)C2C3C=CC(O3)C2C1=O (stereo unspecified)
EC50 [16]: > 112 µM (not active) | EC50 [17]: > 112 µM (not active) | AC50 (Cytochrome P450 3A4): 17.8 µM (inconclusive) | AC50 (Cytochrome P450 2C9): inconclusive

Sc1nnc(-c2cc[nH]n2)n1-c1ccccc1Cl
EC50 [2]: 12.7 µM (active) | EC50 [3]: 24.1 µM (active) | EC50 (H4): 19.3 µM (active)

COc1ccc(NC(=O)C(=O)NCC(c2ccco2)N2CCc3ccccc3C2)cc1 (stereo unspecified)
CC50 [4]: > 40 µM (active)

CCCCCCCCn1cnc2c(N)c(C)c(C)cc21
CC50 [4]: > 40 µM (active)

N#Cc1ccc(C(c2nnnn2CCc2ccccc2)N2CCCCCC2)cc1 (stereo unspecified)
AC50 [7]: 4.92 µM (active) | AC50 [8]: 12.1 µM (active) | AC50 [9]: 20.2 µM (active) | AC50 [12]: 10.2 µM (active)

COc1ccc(CNC(=O)Cn2cccc2C(=O)c2ccccc2C)cc1
EC50 [2]: 10.3 µM (active) | EC50 [3]: 10.2 µM (active) | EC50 (H4): 16.8 µM (active)

CC(C)c1cc(C(=O)Nc2cc(Br)ccc2O)no1
EC50 [2]: 14 µM (active) | EC50 [3]: > 120 µM (not active) | EC50 (H4): > 120 µM (not active)
